In article PMC9570478, “Purification, Biochemical and Kinetic Characterization of a Novel Alkaline sn-1,3-Regioselective Triacylglycerol Lipase from Penicillium crustosum Thom Strain P22 Isolated from Moroccan Olive Mill Wastewater” (International Journal of Molecular Sciences, 2022):

Legend:
[1] = biological target: T1, Lipolase (Thermomyces lanuginosus, UniProt O59952); assay: pH-Stat titration; format: biochemical; details: commercial preparation; TC8 emulsion
T1 construct: gene LIP; commercial enzyme preparation (Novozymes)
T1 sequence (O59952 23-291): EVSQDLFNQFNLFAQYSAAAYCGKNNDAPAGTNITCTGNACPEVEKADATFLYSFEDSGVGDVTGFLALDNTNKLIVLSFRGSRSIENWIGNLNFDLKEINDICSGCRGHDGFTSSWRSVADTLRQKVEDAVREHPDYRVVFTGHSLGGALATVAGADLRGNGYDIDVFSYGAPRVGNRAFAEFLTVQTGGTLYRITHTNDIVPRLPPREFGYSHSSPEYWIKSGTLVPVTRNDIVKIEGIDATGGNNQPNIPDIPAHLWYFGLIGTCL

[2] = biological target: T2, Palatase 20000 L (Rhizomucor miehei, UniProt P19515); assay: pH-Stat titration; format: biochemical; details: commercial preparation; TC8 emulsion
T2 construct: commercial enzyme preparation (Novozymes)
T2 sequence (P19515 95-363): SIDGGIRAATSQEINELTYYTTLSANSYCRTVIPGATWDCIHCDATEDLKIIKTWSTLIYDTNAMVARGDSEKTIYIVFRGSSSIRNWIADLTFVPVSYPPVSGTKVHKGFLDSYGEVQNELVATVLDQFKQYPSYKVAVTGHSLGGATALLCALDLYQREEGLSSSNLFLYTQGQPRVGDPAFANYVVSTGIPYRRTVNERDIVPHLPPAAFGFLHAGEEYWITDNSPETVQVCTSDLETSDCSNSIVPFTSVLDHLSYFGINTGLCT

In the case of `CCCCCCCC(=O)OCC(COC(=O)CCCCCCC)OC(=O)CCCCCCC` [TC8], the pH-Stat titration [1] is reported as “almost the same substrate specificity profile as PCrL under the same experimental conditions” and the pH-Stat titration [2] is reported as “almost the same substrate specificity profile as PCrL under the same experimental conditions”.
